Literature values as cited in patent US20040202640A1, “Method for topical treatment of scars with rotein Kinase C inhibitors” (priority 2003, published 2004).

Key:
calmodulin (CaM) = calmodulin (CaM) (Homo sapiens, UniProt P0DP23)
[1] = system: phorbol ester induced omithine decarboxylase activity; conditions: mouse skin

Compound	PKC inhibition (PKC)	CaM function (calmodulin (CaM))	phorbol ester induced omithine decarboxylase activity [1]
CCCCCCCCCCCCC/C=C/[C@@H](O)[C@@H](N)COP(=O)(O)O [sphingosingosine-1-phosphate, sphingosine-1 phosphate]	more effective PKC inhibitor than sphingosine		
CCCCCCCCCCCCC/C=C/[C@@H](O)[C@@H](N)CO [Sphingosine]	dose-dependently inhibits PKC	inhibits CaM function	inhibit
